Experimental findings from patent US9539237B2, “Compositions and methods for drug-sensitization or inhibition of a cancer cell” (The Texas A&M University System, priority 2012, dated 2017) are described below.

Assay [1] deals with CHOP-resistant G3 NHL cells. Put plainly: Cell growth assay (resazurin fluorescence) on G3 cells. Format: cell-based, human. The note with it: for Magnitude of potentiation in combination with doxorubicin: G3; for Fold increase in potency over DOX alone: lymphoma cell line G3. As to the method: Compositions were tested on CHOP-resistant G3 NHL cells that had been cultivated in RPMI medium for five days. Prior to assay, the cells were counted by haemocytometer and cell concentration standardized to 625,000 cells/ml. Test drugs were solubilized in 100% DMSO and then diluted to final assay concentration with 0.1M phosphate buffered saline (PBS) and a final DMSO concentration of 0.5%. […] The metabolic dye rezasurin was added to the wells of the assay plate at a final concentration of 20 μg/ml and the plates were incubated for an additional 24 hours. The plates were then read in a BMG Polarstar plate reader at wavelength (573-605) and the data plotted as OD versus increasing dilutions (i.e., decreasing total amounts) of rifabutin derivative concentration.
(§1) In these experiments, the following cell lines were used: CHOP-resistant NHL cell line G3, CHOP-sensitive NHL cell line CRL2631, the multi-drug resistant sarcoma cell line MES-SA-Dx5; multi-drug-resistant breast cancer cell line MDA-MB-231, multi-drug resistant ovarian carcinoma cell line SK-OV3, multi-drug resistant ovarian cancer cell line NCI/ADR-RES, drug-sensitive ovarian cancer cell line OVCAR-5, and multi-drug resistant ovarian cancer cell line OVCAR-3. […]
In general terms: The colour change of resazurin is a common sign of viable cells or microbes.

In assay [2] the test system is multi-drug resistant ovarian carcinoma cell line SK-OV3. Put plainly: Cell growth assay on SK-OV3 cells. In kind it is cell-based, human.
Description: as §1

Assay [3] concerns multi-drug resistant ovarian cancer cell line OVCAR-3. Kind of assay: Cell growth assay on OVCAR-3 cells. In kind it is cell-based. An excerpt:
(§2) In these experiments, the following cell lines were used: CHOP-resistant NHL cell line G3, CHOP-sensitive NHL cell line CRL2631, the multi-drug resistant sarcoma cell line MES-SA-Dx5; multi-drug-resistant breast cancer cell line MDA-MB-231, multi-drug resistant ovarian carcinoma cell line SK-OV3, multi-drug resistant ovarian cancer cell line NCI/ADR-RES, drug-sensitive ovarian cancer cell line OVCAR-5, and multi-drug resistant ovarian cancer cell line OVCAR-3.
(§3) Additional cell lines used include: ovarian cancer OVCAR-8. T lymphoblastoid leukemia MOLT-4, dexamethasone-resistant multiple myeloma MM.1R, myeloid leukemia cells HL-60, osteosarcoma cells U-2 OS, and myeloma RPMI 8226.

Assay [4] deals with multi-drug resistant ovarian cancer cell line NCI/ADR-RES. Put plainly: Cell growth assay on NCI/ADR-RES cells. In kind it is cell-based.
Description: as §2, §3

Assay [5] has as its system total intracellular ROS. Put plainly: Intracellular ROS by CellROX staining and flow cytometry. Format: cell-based. From the text:
Cells were then stained with the fluorescent ROS indicator, CellROX, and subjected to flow cytometry to quantitate total intracellular ROS.
The electron transport chain (ETC) is known to be a primary generator of ROS in the cell. Most of the ROS is generated by Complexes I and III of the ETC. Inhibition of Complex I results in electrons piling up and leaking to react with oxygen to produce ROS.
MDR/P-gp activity is closely associated with calcium status in the cell, so calcium modulators were tested for effects on ROS. […] Relatively Dox-sensitive lymphoma (CRL2631, 10S, WSU) and ovarian carcinoma (OVCAR8) and more Dox-resistant lymphoma (G3R, 10R, WSUR) and ovarian carcinoma (ADR) were treated with 10 uM […] for 2 hrs. […] Cells were co-stained with the cell-permeable red fluorescent ROS indicator, CellROX, and cell-permeable green fluorescent calcium indicator. Fluo-4AM, and then subjected to flow cytometry to quantitate changes in ROS and calcium levels.
All samples were analyzed at the same time in flow cytometry.
In general terms: A flow cytometer gives signals particle by particle.

Assay [6] has as its system multi-drug-resistant breast cancer cell line MDA-MB-231. Put plainly: Cell growth assay on MDA-MB-231 cells. In kind it is cell-based.
Description: as §2, §3

Assay [7] concerns multi-drug resistant sarcoma cell line MES-SA-Dx5. Put plainly: Cell growth assay on MES-SA-Dx5 cells. Format: cell-based.
Description: as §2, §3

The test system of assay [8] is G3 CHOP-resistant NHL cells. Put plainly: G3 tumor efficacy studies in SCID mice. Format: in vivo. As to conditions: fourth study. Here is the method: In a first efficacy study, 6-8 week old female SCID mice (7 mice per treatment arm) were injected subcutaneously on both flanks with 1×10^7 G3 CHOP-resistant NHL cells. Once palpable tumors (about […] size) appeared, therapies (CHOP or CHOP+rifabutin) were started. CHOP was administered at the maximum tolerated dose (cyclophosphamide, 40 mg/kg i.v.; doxorubicin, 3.3 mg/kg i.v.; vincristine, 0.5 mg/kg i.v.; and prednisone, 0.2 mg/kg orally daily for 5 d) weekly for 3 weeks. Rifabutin in an amount of 100 mg/kg was administered on the day of each CHOP treatment and 24-hours later by gavage. Mouse body weight and tumor size were monitored every two days and tumor size measured by caliper. The tumor volume formula (L*W*W)/2 was used to calculate tumor mass.
A second efficacy study was conducted where mice were treated before the appearance of palpable tumors. In that experiment, one week after transplantation of CHOP-resistant G3 cells, one group (7 mice) was treated with CHOP-only and a second group (8 mice) was treated with CHOP+rifabutin.
A third study was conducted in which mice injected with CHOP-resistant G3 cells received reduced dosages of CHOP in combination with 33 mg/kg rifabutin. CHOP+rifabutin was administered weekly beginning one week post-inoculation. Control mice were given no CHOP or rifabutin.
SCID mice were injected with CHOP-resistant G3 cells in the same manner as the first efficacy study above. Treatments began 2 weeks post-inoculation and were administered twice weekly.

The mark [9] stands for this setting: Dox-resistant G3 lymphoma cells, FIG. 40.

As for `O=c1[nH]c2ccccc2n1C1CCN(Cc2ccc(-c3nc4cc5[nH]cnc5cc4nc3-c3ccccc3)cc2)CC1` [Akt Inhibitor VIII, reference compound], in assay [1] (G3 cells, FIG. 30B), the “Reversal of CHOP resistance” value is “dose-dependent reversal of CHOP resistance”.

As to `CO[C@H]1/C=C/O[C@@]2(C)Oc3c(C)c(O)c4c(O)c(c5c(c4c3C2O)=NC2(CCN(CC(C)C)CC2)N=5)NC(=O)/C(C)=C\C=C\[C@H](C)[C@H](O)[C@@H](C)[C@@H](O)[C@@H](C)[C@H](OC(C)=O)[C@@H]1C` (stereo partly drawn) [RTI-174, 11-deoxy-11-hydroxy-4-deoxy-3,4[2-spiro-[1-(2-methylpropyl)-piperidin-4-yl]]-(1H)-imidazo-(2,5-dihydro)rifamycin S], the “Magnitude of potentiation in combination with doxorubicin” value (shortened to “Magnitude of potentiation”) is reported as “++ (++ potentiation between 2.1 to 5 fold increase)” in assay [1], “+ (+ potentiation between 1.2 to 2.0 fold increase)” in assay [2], “+ (+ potentiation between 1.2 to 2.0 fold increase)” in assay [3] and “+ (+ potentiation between 1.2 to 2.0 fold increase)” in assay [4].

For `COC(=O)[C@H]1[C@H]2C[C@@H]3c4[nH]c5cc(OC)ccc5c4CCN3C[C@H]2C[C@@H](OC(=O)c2cc(OC)c(OC)c(OC)c2)[C@@H]1OC` [reserpine], the “Induction of ROS relative to control drugs” value in assay [5] (ADR and OVCAR8 cells, FIG. 41A) is “induced ROS”. The “Induction of ROS” value in assay [5] (OVCAR8, ADR-RES and G3 cells, 2 hrs, 10 uM, FIG. 38) is “induced ROS”.

As to “11-deoxy-11-imino-4-deoxy-3,4[2-spiro-[1-(isobutylaminocarbonyl)-piperidin-4-yl]]-(1H)-imidazo-(2,5-dihydro)rifamycin S [RTI-182]”, the “Magnitude of potentiation” value in assay [1] is on record as “+ (+ potentiation between 1.2 to 2.0 fold increase)”; in assay [6] it was “++ (++ potentiation between 2.1 to 5 fold increase)”; in assay [2] it was “++ (++ potentiation between 2.1 to 5 fold increase)”; in assay [3], “+ (+ potentiation between 1.2 to 2.0 fold increase)”. For the same compound, the “Fold increase in potency over DOX alone” value in assay [1] was 2.0 fold.

With “11-deoxy-11-imino-4-deoxy-3,4[2-spiro-[1-(isobutyloxycarbonyl)-piperidin-4-yl]]-(1H)-imidazo-(2,5-dihydro)rifamycin S [RTI-81]”, the “Magnitude of potentiation” value was “+++ (+++ potentiation greater than 5 fold increase)” in assay [1], “++ (++ potentiation between 2.1 to 5 fold increase)” in assay [7], “+++ (+++ potentiation greater than 5 fold increase)” in assay [2] and “+ (+ potentiation between 1.2 to 2.0 fold increase)” in assay [4]. For the same compound, the “Longer life than doxorubicin only” value in assay [8] (DOX 3.3 mg/kg iv + RTI-81 10 mg/kg by gavage twice weekly) came to 27%. The Mean lifespan in assay [8] (doxorubicin+RTI-81 group) amounted to 42.6. Further, the Median lifespan in assay [8] (doxorubicin+RTI-81 group) was found to be 42.

Take antimycin A: in assay [5] (setting [9]), the “Induction of ROS” value was “not”.

Regarding `C=C(C)[C@H]1Cc2c(ccc3c2O[C@@H]2COc4cc(OC)c(OC)cc4[C@@H]2C3=O)O1` [Rotenone], the “Induction of ROS” value in assay [5] (setting [9]) is “induced ROS”.

For the compound “11-deoxy-11-imino-4-deoxy-3,4[2-spiro-[1-(2-methoxyethyl)-piperidin-4-yl]]-(1H)-imidazo-(2,5-dihydro)rifamycin S [RTI-51]”, the “Fold increase in potency over DOX alone” value in assay [1] is listed as 0.7 fold. The “Magnitude of potentiation” value in assay [2] and in assay [3] was “+ (+ potentiation between 1.2 to 2.0 fold increase)” each time.

Turning to `CCNC(=O)N1CCC2(CC1)N=c1c3c(O)c4c(O)c(C)c5c(c4c1=N2)C(=N)[C@@](C)(O/C=C/[C@H](OC)[C@@H](C)[C@@H](OC(C)=O)[C@H](C)[C@H](O)[C@H](C)[C@@H](O)[C@@H](C)/C=C/C=C(/C)C(=O)N3)O5` [RTI-82, 11-deoxy-11-imino-4-deoxy-3,4[2-spiro-[1-(ethylaminocarbonyl)-piperidin-4-yl]]-(1H)-imidazo-(2,5-dihydro)rifamycin S], the “Fold increase in potency over DOX alone” value in assay [1] stood at 0.7 fold. Also, the “Magnitude of potentiation” value in assay [6] is recorded as “+++ (+++ potentiation greater than 5 fold increase)”.

“4-deoxy-3,4[2-spiro-[1-(n-propyloxycarbonyl)-piperidin-4-yl]]-(1H)-imidazo-(2,5-dihydro)rifamycin S [RTI-78]”: in assay [1], the “Fold increase in potency over DOX alone” value came out at 29.5 fold.

On to `CC(=O)OCOC(=O)CN(CC(=O)OCOC(C)=O)c1ccccc1OCCOc1ccccc1N(CC(=O)OCOC(C)=O)CC(=O)OCOC(C)=O` [BAPTA-AM], for which the “Induction of ROS” value in assay [5] (setting [9]) was “induced ROS”.

`COC1C=COC2(C)Oc3c(C)c(O)c4c(c3C2N)C2=NC3(CCN(CC(C)C)CC3)NC2=C(NC(=O)C(C)=CC=CC(C)C(O)C(C)C(O)C(C)C(OC(C)=O)C1C)C4=O` (stereo not drawn) [RTI-181, 11-deoxy-11-amino-4-deoxy-3,4[2-spiro-[1-(2-methylpropyl)-piperidin-4-yl]]-(1H)-imidazo-(2,5-dihydro)rifamycin S]: the entries for the “Magnitude of potentiation” value in assay [1], in assay [2] and in assay [3] were “+++ (+++ potentiation greater than 5 fold increase)”, “+++ (+++ potentiation greater than 5 fold increase)” and “+ (+ potentiation between 1.2 to 2.0 fold increase)”, respectively. For the same compound, the “Fold increase in potency over DOX alone” value in assay [1] worked out at 5.5 fold.

On to “11-deoxy-11-amino-4-deoxy-3,4[2-spiro-[1-(isobutylaminocarbonyl)-piperidin-4-yl]]-(1H)-imidazo-(2,5-dihydro)rifamycin S [RTI-183]”, for which the “Fold increase in potency over DOX alone” value in assay [1] was determined as 0.5 fold. Also, the “Magnitude of potentiation” value in assay [3] was “+ (+ potentiation between 1.2 to 2.0 fold increase)”.

Regarding “11-deoxy-11-imino-4-deoxy-3,4[2-spiro-[1-(2-morpholinoethyl)-piperidin-4-yl]]-(1H)-imidazo-(2,5-dihydro)rifamycin S [RTI-53]”, the “Fold increase in potency over DOX alone” value in assay [1] was 0.2 fold. Besides, the “Magnitude of potentiation” value in assay [2] and in assay [3] was “+ (+ potentiation between 1.2 to 2.0 fold increase)” throughout.

Consider “4-deoxy-3,4[2-spiro-[1-(isobutylaminocarbonyl)-piperidin-4-yl]]-(1H)-imidazo-(2,5-dihydro)rifamycin S [RTI-102]”, for which the “Magnitude of potentiation” value in assay [1] is given as “++ (++ potentiation between 2.1 to 5 fold increase)”; in assay [2] it was “+++ (+++ potentiation greater than 5 fold increase)”.
